In PubChem BioAssay AID743317 (Broad Institute, 2014):
Records with an inconclusive call do not appear. Active and inactive are the calls of the source.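 The calls were made as follows: active = fitted curve reaches 40% activation at or below the top valid dose, and every replicate test is called active; inconclusive = replicate tests disagree, some active and some inactive; inactive = all replicate tests inactive, including activity in the wrong direction.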

target: Endoplasmic reticulum aminopeptidase 1 (Homo sapiens) (UniProt Q9NZ08); assay: ERAP1 aminopeptidase activity change, dose response, biochemical, fluorescence, cherry-pick (AID 743317); details: ERAP1 enzyme, Leu-AMC fluorescence, 60 min
Sequence (Q9NZ08 whole entry, looked up): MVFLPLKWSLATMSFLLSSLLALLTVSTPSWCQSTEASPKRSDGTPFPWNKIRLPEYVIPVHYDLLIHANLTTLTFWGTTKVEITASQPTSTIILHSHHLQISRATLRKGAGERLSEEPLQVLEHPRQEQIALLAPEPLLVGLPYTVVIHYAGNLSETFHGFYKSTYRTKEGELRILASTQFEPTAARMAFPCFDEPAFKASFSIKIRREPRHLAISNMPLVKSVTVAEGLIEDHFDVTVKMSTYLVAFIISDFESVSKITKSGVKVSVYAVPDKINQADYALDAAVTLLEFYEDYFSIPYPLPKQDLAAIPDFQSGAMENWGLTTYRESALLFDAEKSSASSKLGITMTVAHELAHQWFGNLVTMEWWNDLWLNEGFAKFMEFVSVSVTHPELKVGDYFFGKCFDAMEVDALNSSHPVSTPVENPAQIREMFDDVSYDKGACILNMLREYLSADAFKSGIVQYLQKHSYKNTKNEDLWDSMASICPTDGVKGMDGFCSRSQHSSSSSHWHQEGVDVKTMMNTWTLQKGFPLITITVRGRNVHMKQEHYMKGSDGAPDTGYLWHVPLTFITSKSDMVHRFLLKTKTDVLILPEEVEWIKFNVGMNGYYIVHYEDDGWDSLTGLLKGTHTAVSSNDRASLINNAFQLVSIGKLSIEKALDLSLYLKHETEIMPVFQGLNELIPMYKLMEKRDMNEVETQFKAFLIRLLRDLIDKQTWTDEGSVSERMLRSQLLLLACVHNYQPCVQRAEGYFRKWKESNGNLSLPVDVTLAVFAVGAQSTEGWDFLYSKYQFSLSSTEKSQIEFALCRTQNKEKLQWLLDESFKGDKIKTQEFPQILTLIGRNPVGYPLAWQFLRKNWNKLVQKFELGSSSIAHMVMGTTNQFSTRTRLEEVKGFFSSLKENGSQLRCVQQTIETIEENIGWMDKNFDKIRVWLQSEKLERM

| SMILES | AC40 |
| --- | --- |
| CCn1cc(CN2CCCC(C(=O)Nc3ccc(-c4nc5ccccc5[nH]4)cc3)C2)c(C)n1 (configuration not stated) | 3500 nM |
| Cc1ccc(S(=O)(=O)Nc2ccc3c(c2)C(=O)N([C@@H](C)CO)C[C@H](C)[C@H](CN(C)C)OCCCC[C@@H](C)O3)cc1 | 480 nM |
| C[C@@H]1CCCCO[C@@H](CN(C)Cc2ccccc2)[C@H](C)CN([C@H](C)CO)C(=O)c2cc(NS(=O)(=O)c3cccs3)ccc2O1 | 528 nM |
| COc1ccc(CN(C)C[C@H]2OCCCC[C@@H](C)Oc3ccc(NS(=O)(=O)c4cccs4)cc3C(=O)N([C@@H](C)CO)C[C@@H]2C)cc1 | 4590 nM |
| Cc1noc(C)c1NC(=O)N(C)C[C@@H]1Oc2c(NC(=O)Nc3ccc(F)cc3)cccc2C(=O)N([C@H](C)CO)C[C@@H]1C | 5640 nM |
| COc1ccc(C(=O)O)cc1S(=O)(=O)Nc1cc(C(F)(F)F)ccc1N1CCCCC1 | 246 nM |
| C[C@H]1CN([C@@H](C)CO)C(=O)c2cccc(NC(=O)Nc3ccc(C(F)(F)F)cc3)c2O[C@@H]1CN(C)C | 1410 nM |
| O=c1cc(CN2CCN(Cc3ccccc3)CC2)c2ccc(O)cc2o1 | 1680 nM |
| COc1ccc(NC(=O)Nc2cccc3c2O[C@H](CN(C)Cc2ccc(C(=O)O)cc2)[C@H](C)CN([C@H](C)CO)C3=O)cc1 | 5250 nM |
| C[C@@H]1CCCCO[C@@H](CN(C)Cc2ccccc2)[C@@H](C)CN([C@H](C)CO)C(=O)c2cc(NS(=O)(=O)c3cccs3)ccc2O1 | 158 nM |
| COc1ccc(NC(=O)Nc2ccc3c(c2)C(=O)N([C@@H](C)CO)C[C@@H](C)[C@@H](CN(C)Cc2ccc(C(=O)O)cc2)OCCCC[C@@H](C)O3)cc1 | < 80 nM |
| COc1ccc(S(=O)(=O)Nc2ccc3c(c2)C(=O)N([C@@H](C)CO)C[C@H](C)[C@H](CN(C)C)OCCCC[C@@H](C)O3)cc1 | 419 nM |
| COc1ccc(NC(=O)Nc2ccc3c(c2)C(=O)N([C@@H](C)CO)C[C@@H](C)[C@H](CN(C)Cc2ccc(C(=O)O)cc2)OCCCC[C@H](C)O3)cc1 | 3740 nM |

same assay, conditions: ERAP1 enzyme, Leu-AMC fluorescence, 60 min; at 5.6 µM (top of the series)

| SMILES | activity increase (activation) |
| --- | --- |
| CC1CCN(Cc2cc(=O)oc3cc(O)c(Cl)cc23)CC1 | -36.5% (inactive) |

same assay, conditions: ERAP1 enzyme, Leu-AMC fluorescence, 60 min; at 11 µM (top of the series)

| SMILES | activity increase (activation) |
| --- | --- |
| CSC1=NS(=O)(=O)c2c(C)nn(C)c2S1 | -42.5% (inactive) |
| CCCCc1cc(=O)oc2cc(O)ccc12 | -62.4% (inactive) |
| CCOC(=O)C[n+]1ccc2c([nH]c3ccccc32)c1C | -38.3% (inactive) |
| O=c1ccc2cc(O[C@@H]3O[C@H](CO)[C@@H](O)[C@H](O)[C@H]3O)c(O)cc2o1 | -98.9% (inactive) |
| Cc1c(CC(=O)N2CCN(C(=O)C3COc4ccccc4O3)CC2)c(=O)oc2cc(O)c(Cl)cc12 (configuration not stated) | -33.4% (inactive) |
| Cc1c(C)c2ccc(O)c(CN3CCCC3)c2oc1=O | -57% (inactive) |
| COc1ccc(-c2cc3ccc(O)cc3oc2=O)cc1OC | -92.7% (inactive) |
| CN1[C@@H]2c3ccc(/C=C/c4ccccc4)c(=O)n3C[C@@H]2[C@@H](CO)[C@@H]1C(=O)NC1CCCC1 | -14.6% (inactive) |
